Assay results as given in patent US20210347780A1, “CDPK1 INHIBITORS, COMPOSITIONS, AND METHODS RELATED THERETO” (Vyera Pharmaceuticals, LLC, priority 2018, published 2021).
pIC50: −log10 of the molar value.

Biological target: T1, T. gondii CDPK1 (tgCDPK1) (Toxoplasma gondii, UniProt Q9BJF5)
T1 sequence (Q9BJF5 1-507): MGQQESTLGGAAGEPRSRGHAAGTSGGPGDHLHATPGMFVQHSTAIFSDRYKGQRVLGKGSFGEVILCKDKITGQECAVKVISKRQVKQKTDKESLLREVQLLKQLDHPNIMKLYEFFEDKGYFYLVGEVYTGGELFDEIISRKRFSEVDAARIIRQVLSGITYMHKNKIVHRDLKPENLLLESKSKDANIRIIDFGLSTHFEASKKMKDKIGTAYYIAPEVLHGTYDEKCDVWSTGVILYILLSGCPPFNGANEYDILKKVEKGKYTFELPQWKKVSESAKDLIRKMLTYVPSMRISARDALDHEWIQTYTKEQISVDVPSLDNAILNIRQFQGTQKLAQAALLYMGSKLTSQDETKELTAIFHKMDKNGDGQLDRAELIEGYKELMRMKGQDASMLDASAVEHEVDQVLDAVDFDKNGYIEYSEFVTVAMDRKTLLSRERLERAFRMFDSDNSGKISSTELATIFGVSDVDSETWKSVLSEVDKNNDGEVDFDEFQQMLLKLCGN
Assay: biochemical
Conditions: inhibition of T. gondii CDPK1; at least three independent replicates; read-out: tgCDPK1 IC50
Description: Certain of the compounds prepared as described above were assayed to determine their IC50 for inhibition of T. gondii CDPK1 (tgCDPK1). At least three independent replicates of the assay were conducted for each compound tested.

Compound	pIC50
CC(C)(C)OC(=O)N1CCC(Cn2nc(Oc3cc(Cl)ccn3)c3c(N)ncnc32)C(F)(F)C1 (stereo not drawn) [Compound 212]	7.51
Nc1ncnc2c1c(Oc1cc(Cl)ccn1)nn2CC1CCNCC1(F)F (stereo not drawn) [Compound 213]	8.01
Nc1ncnc2c1c(Oc1cc(Cl)ccn1)nn2C1CCCCC1 [Compound 214]	8.34
N#Cc1ccnc(Oc2nn(C3CCCCC3)c3ncnc(N)c23)c1 [Compound 215]	7.91
Nc1ncnc2c1c(Oc1cc(Cl)ccn1)nn2C1CCCOC1 (stereo not drawn) [Compound 216]	7.80
COc1ccnc(Oc2nn(C3CCOC3)c3ncnc(N)c23)c1 (stereo not drawn) [Compound 219]	7.11
COc1ccnc(Oc2nn(C3CCOCC3)c3ncnc(N)c23)c1 [Compound 220]	7.26
N#Cc1ccnc(Oc2nn(CC3CC3)c3ncnc(N)c23)c1 [Compound 221]	7.62
Nc1ncnc2c1c(Oc1cc(Cl)ccn1)nn2C1CCCNC1 (stereo not drawn) [Compound 222]	7.61
COc1ccnc(Oc2nn(CC3CC3)c3ncnc(N)c23)c1 [Compound 223]	7.60
CC(C)(C)OC(=O)N1CCCC(n2nc(Oc3cc(Cl)ccn3)c3c(N)ncnc32)C1 (stereo not drawn) [Compound 224]	7.36
Nc1ncnc2c1c(Oc1cc(Cl)ccn1)nn2CC1CC1 [Compound 225]	8.05
CN(C)C1CCC(n2nc(Oc3cc(C(F)(F)F)ccn3)c3c(N)ncnc32)CC1 (stereo not drawn) [Compound 227]	7.55
COC(=O)C1CCC(n2nc(Oc3cc(C(F)(F)F)ccn3)c3c(N)ncnc32)CC1 (stereo not drawn) [Compound 228]	7.60
Nc1ncnc2c1c(Oc1cc(C(F)(F)F)ccn1)nn2C1CCC(O)C1 (stereo not drawn) [Compound 230]	7.62
Nc1ncnc2c1c(Oc1cc(C(F)(F)F)ccn1)nn2[C@H]1CC[C@@H](O)CC1 [Compound 231]	7.73
Nc1ncnc2c1c(Oc1cc(C(F)(F)F)ccn1)nn2C1CCC(N)CC1 (stereo not drawn) [Compound 232]	7.61
Nc1ncnc2c1c(Oc1cc(C(F)(F)F)ccn1)nn2[C@H]1CCCC[C@H]1F [Compound 233]	7.46
Nc1ncnc2c1c(Oc1cc(C(F)(F)F)ccn1)nn2C1CC2CNC1C2 (stereo not drawn) [Compound 234]	7.12
Nc1ncnc2c1c(Oc1cc(C(F)(F)F)ccn1)nn2[C@H]1CC[C@H](O)CC1 [Compound 235]	7.80
COC1CCCCC1n1nc(Oc2cc(C(F)(F)F)ccn2)c2c(N)ncnc21 (stereo not drawn) [Compound 236]	7.07

Compound	pIC50
CO[C@H]1CC[C@H](n2nc(Oc3cc(C(F)(F)F)ccn3)c3c(N)ncnc32)CC1 [Compound 237]	7.42
CO[C@H]1CC[C@@H](n2nc(Oc3cc(C(F)(F)F)ccn3)c3c(N)ncnc32)CC1 [Compound 238]	7.35
Nc1ncnc2c1c(Oc1cc(C(F)(F)F)ccn1)nn2[C@H]1CC[C@@H](N)CC1 [Compound 239]	7.64
CC(C)(C)OC(=O)N[C@H]1CC[C@@H](n2nc(Oc3cc(C(F)(F)F)ccn3)c3c(N)ncnc32)C1 [Compound 240]	7.92
Nc1ncnc2c1c(Oc1cc(C(F)(F)F)ccn1)nn2[C@H]1CC[C@@H](CO)CC1 [Compound 242]	7.82
Nc1ncnc2c1c(Oc1cc(C(F)(F)F)ccn1)nn2[C@H]1CC[C@H](CO)CC1 [Compound 243]	7.99
Nc1ncnc2c1c(Oc1cc(C(F)(F)F)ccn1)nn2CC1(C(F)(F)F)CC1 [Compound 244]	7.51
Nc1ncnc2c1c(Oc1cccc(Cl)c1)nn2Cc1cc[nH]c1 [Compound 247]	7.71
Nc1ncnc2c1c(Oc1cc(C(F)(F)F)ccn1)nn2[C@H]1COC[C@H](N)C1 [Compound 248]	7.22
Nc1ncnc2c1c(Oc1cc(C(F)(F)F)ccn1)nn2[C@H]1COC[C@@H](N)C1 [Compound 249]	7.26
Nc1ncnc2c1c(Oc1cccc(Cl)c1)nn2CC1(CO)CC1 [Compound 250]	7.46
Nc1ncnc2c1c(Oc1cc(C(F)(F)F)ccn1)nn2[C@@H]1CC[C@H](N)C1 [Compound 251]	7.38
Nc1ncnc2[nH]nc(Oc3cccc(Cl)c3)c12 [Compound 252]	7.11
CC(C)(C)n1nc(Cc2c[nH]c3ccccc23)c2c(N)ncnc21 [Compound 254]	8.05
CC(C)(C)n1nc(Cc2cccc(C#N)c2)c2c(N)ncnc21 [Compound 255]	7.87
Nc1ncnc2c1c(Oc1cc(C(F)(F)F)ccn1)nn2C1CCCC1 [Compound 257]	7.63
CC(C)(C)n1nc(Oc2cc(C(F)(F)F)ccn2)c2c(N)ncnc21 [Compound 258]	7.86
CC(C)(C)n1nc(Oc2cc(C#N)ccn2)c2c(N)ncnc21 [Compound 259]	7.74
CC(C)(C)n1nc(Oc2cc(C(N)=O)ccn2)c2c(N)ncnc21 [Compound 260]	7.39
Nc1ncnc2c1c(Oc1cc(Cl)ccn1)nn2C1CCC(F)(F)CC1 [Compound 261]	7.45
CC(C)(C)n1nc(Oc2cc(Cl)ccn2)c2c(N)ncnc21 [Compound 262]	7.92

Compound	pIC50
N#Cc1ccnc(Oc2nn(CC3CCNCC3(F)F)c3ncnc(N)c23)c1 (stereo not drawn) [Compound 263]	7.41
CC(C)(C)n1nc(Oc2cc(O)ccn2)c2c(N)ncnc21 [Compound 264]	7.86
CC(C)(CO)Cn1nc(Oc2cccc(Cl)c2)c2c(N)ncnc21 [Compound 265]	7.32
C=CC(O)Cn1nc(Oc2cc(C(F)(F)F)ccn2)c2c(N)ncnc21 (stereo not drawn) [Compound 268]	7.93
Nc1ncnc2c1c(Oc1cc(C(F)(F)F)ccn1)nn2CC1CCB(O)O1 (stereo not drawn) [Compound 269]	7.54
Nc1ncnc2c1c(Oc1cc(C(F)(F)F)ccn1)nn2CC1CC(B(O)O)C1 (stereo not drawn) [Compound 270]	7.54
Nc1ncnc2c1c(Oc1cc(C(F)(F)F)ccn1)nn2C1CCNCC1(F)F (stereo not drawn) [Compound 271]	7.70
Nc1ncnc2c1c(Oc1cc(C(F)(F)F)ccn1)nn2C1(C(F)(F)F)CCC1 [Compound 272]	7.68
Nc1ncnc2c1c(Oc1cc(C(F)(F)F)ccn1)nn2CC1CC(O)C1 (stereo not drawn) [Compound 273]	7.45
Nc1ncnc2c1c(Oc1cc(C(F)(F)F)ccn1)nn2C1CC(F)(F)CCC1O (stereo not drawn) [Compound 274]	7.46
CC(=O)Oc1ccnc(Oc2nn(C3CCC(F)(F)CC3)c3ncnc(N)c23)c1 [Compound 277]	7.67
Nc1ncnc2c1c(Oc1cc(O)ccn1)nn2[C@H]1CCCC[C@@H]1O [Compound 278]	7.72
Nc1ncnc2c1c(Oc1cc(C(F)(F)F)ccn1)nn2C1CCCCC1(F)F (stereo not drawn) [Compound 279]	7.45
Nc1ncnc2c1c(Oc1cc(C(F)(F)F)ccn1)nn2CC(F)(F)F [Compound 280]	7.41
COc1ccnc(Oc2nn([C@@H]3CCCC[C@H]3O)c3ncnc(N)c23)c1 [Compound 281]	7.58
COc1ccnc(Oc2nn([C@H]3CCCC[C@H]3O)c3ncnc(N)c23)c1 [Compound 282]	7.38
CCOC(=O)C1(n2nc(Oc3cc(C(F)(F)F)ccn3)c3c(N)ncnc32)CCC1 [Compound 287]	6.14
Nc1ncnc2c1c(Oc1cc(C(F)(F)F)ccn1)nn2C1(C(=O)O)CCC1 [Compound 288]	4.93
Nc1ncnc2c1c(Oc1cc(C(F)(F)F)ccn1)nn2C1CCCCC1=O (stereo not drawn) [Compound 289]	7.01
Nc1ncnc2c1c(Oc1cc(O)ccn1)nn2C1CC(F)C1 (stereo not drawn) [Compound 290]	8.06
(trans)-3-(4-amino-3-((5-fluoro-1H-indol-3-yl)methyl)-1H-pyrazolo[3,4-d]pyrimidin-1-yl)cyclobutan-1-ol [Compound 154]	7.93
